Assay results taken from PMC9143880, “Improving Antimicrobial Activity and Physico-Chemical Properties by Isosteric Replacement of 2-Aminothiazole with 2-Aminooxazole” (Pharmaceuticals, 2022).
Values after ≈ are worked out from the molar mass of the structure shown. Where two headings read alike, the source gives them in different places.

Columns and labels:
[1] = RP-UHPLC lipophilicity parameter log k’w; type: physicochemical; conditions: for log k’w: RP-UHPLC, acetonitrile/water, log k extrapolated to 0% acetonitrile; for logkw: experimental lipophilicity parameter
Text: Lipophilicity and water solubility of the drug candidates are important parameters as they are often directly related to their ADME properties in the organism. Lipophilicity is usually expressed as the logarithm of the partition coefficient in n-octanol/water (log P). Due to its laborious determination, especially in the HTS screening, other experimental methods such as RP-HPLC log k’w or purely computational approaches such as Clog P were proposed and have been established as reasonable estimators of true lipophilicity. To investigate the changes in lipophilicity upon introduction of oxazole in the title compounds, we determined the log k’w of all derivatives and compared respective values among the pairs.
The log k of the synthesized compounds was measured using the same instrument (single measurement per concentration), software, and column as was used in the purity evaluation. Working solutions were diluted as described above for purity determination. The log k parameter was calculated after the UHPLC measurements using isocratic mode with mobile phase acetonitrile (B)/water (A) in a set of concentrations of 40, 45, 50% and 20, 30, 40% B for subtype I and subtype II, respectively.

[2] = system: HepG2 cells; assay: HepG2 cytotoxicity screening (CellTiter 96); type: cell-based, human; conditions: Homo sapiens, HepG2, 24 h, 24 h incubation, CellTiter 96; * above highest tested concentration; ** limited by insolubility in medium
[3] = system: Mycobacterium tuberculosis H37Ra ITM-M006710 (ATCC 9431); assay: Antimycobacterial MIC, microdilution broth / Alamar Blue (resazurin); type: cell-based; conditions: Mycobacterium tuberculosis, 120 h, Middlebrook 7H9, resazurin after 120 h; read-out: Mtb H37Ra MIC
[4] = system: M. smegmatis DSM 43465 (ATCC 607); assay: Antimycobacterial MIC, microdilution broth / resazurin; type: cell-based; conditions: Mycolicibacterium smegmatis; resazurin after 48 h; read-out: MIC M. smegmatis
[5] = system: M. aurum DSM 43999 (ATCC 23366); assay: as above; type: cell-based; conditions: Mycolicibacterium aurum, 72 h, read-out: MIC M. aurum
[6] = system: Staphylococcus aureus subsp. aureus CCM 4223 (ATCC 29213); assay: Antibacterial microdilution broth (EUCAST); type: cell-based; conditions: Staphylococcus aureus; 24h incubation; read-out: MIC SA
[7] = system: Staphylococcus aureus subsp. aureus (MRSA) CCM 4750 (ATCC 43300); assay: Antibacterial microdilution broth (EUCAST); type: cell-based; conditions: Staphylococcus aureus; 24h incubation; read-out: MIC MRSA
[8] = system: Staphylococcus epidermidis CCM 4418 (ATCC 12228); assay: Antibacterial microdilution broth (EUCAST); type: cell-based; conditions: Staphylococcus epidermidis; 24h incubation; read-out: MIC SE
[9] = system: Enterococcus faecalis CCM 4224 (ATCC 29212); assay: Antibacterial microdilution broth (EUCAST); type: cell-based; conditions: Enterococcus faecalis; 24h incubation; read-out: MIC EF
[10] = system: Escherichia coli CCM 3954 (ATCC 25922); assay: Antibacterial microdilution broth (EUCAST); type: cell-based; conditions: Escherichia coli; 24h incubation; read-out: MIC EC
[11] = system: Acinetobacter baumannii DSM 30007 (ATCC 19606); assay: Antibacterial microdilution broth (EUCAST); type: cell-based; conditions: Acinetobacter baumannii; 24h incubation; read-out: MIC AB
[12] = system: Pseudomonas aeruginosa CCM 3955 (ATCC 27853); assay: Antibacterial microdilution broth (EUCAST); type: cell-based; conditions: Pseudomonas aeruginosa; 72h incubation; read-out: MIC PA
[13] = system: Candida albicans CCM 8320 (ATCC 24433); assay: Antifungal microdilution broth (EUCAST); conditions: Candida albicans; for MIC: 24 h
[14] = system: Candida krusei CCM 8271 (ATCC 6258); assay: Antifungal microdilution broth (EUCAST); conditions: Pichia kudriavzevii; for MIC: 24 h
[15] = system: Candida parapsilosis CCM 8260 (ATCC 22019); assay: Antifungal microdilution broth (EUCAST); conditions: Lodderomyces parapsilosis
[16] = system: Candida tropicalis CCM 8264 (ATCC 750); assay: Antifungal microdilution broth (EUCAST); conditions: Candida tropicalis; for MIC: 24 h
[17] = system: Aspergillus fumigatus ATCC 204305; assay: Antifungal microdilution broth (EUCAST); conditions: Aspergillus fumigatus
[18] = system: Aspergillus flavus CCM 8363; assay: Antifungal microdilution broth (EUCAST); conditions: Aspergillus flavus
[19] = system: Lichtheimia corymbifera CCM 8077; assay: Antifungal microdilution broth (EUCAST); conditions: Lichtheimia corymbifera
[20] = system: Trichophyton interdigitale CCM 8377 (ATCC 9533); assay: Antifungal microdilution broth (EUCAST); conditions: Trichophyton interdigitale
[21] = ATCC204305, 24 h, read-out: MIC AF
[22] = CCM8363, 24 h, read-out: MIC AFla
[23] = CCM8077, 24 h, read-out: MIC LC
[24] = read-out: MIC (visual detection)
[25] = ATCC22019|CCM8260, 24 h, read-out: MIC (visual detection)
[26] = ATCC204305, 48 h, read-out: MIC (visual detection)
[27] = CCM8363, 48 h, read-out: MIC (visual detection)
[28] = CCM8077, 48 h, read-out: MIC (visual detection)
[29] = ATCC9533|CCM8377, 48 h, read-out: MIC (visual detection)

Structure (SMILES): O=C(Nc1ncco1)c1cnc2ccccc2n1 [Compound 10b]
- log k’w [1]: 1.493
- logkw [1]: 1.493
- IC50 [2]: > 1000 µM
- MIC [3]: 15.6 µg/mL (≈ 65 µM)
- MIC [4]: 62.5 µg/mL (≈ 260 µM)
- MIC [5]: 15.6 µg/mL (≈ 65 µM)
- MIC [6]: 500 µM (≈ 120 µg/mL)
- MIC [7]: > 500 µM
- MIC [8]: 500 µM (≈ 120 µg/mL)
- MIC [9]: > 500 µM
- MIC [10]: > 500 µM
- MIC [11]: > 500 µM
- MIC [12]: > 500 µM
- melting point: 163 to 165 °C
- MIC ([13]; read-out: MIC CA): 500 µM
- MIC ([14]; read-out: MIC CK): 250 µM
- MIC ([15]; 24 h, read-out: MIC CP): 500 µM
- MIC ([16]; read-out: MIC CT): 500 µM
- MIC [17, 21]: 500 µM
- MIC [18, 22]: > 500 µM
- MIC [19, 23]: 500 µM
- MIC ([20]; 72 h, read-out: MIC TI): 250 µM

Structure (SMILES): O=C(Nc1nc(-c2ccccc2)co1)c1ccncc1 [Compound 13b]
- log k’w [1]: 1.163
- logkw [1]: 1.163
- IC50 [2]: 879 µM
- MIC [3]: 31.2 µg/mL (≈ 118 µM)
- MIC [4]: 125 µg/mL (≈ 471 µM)
- MIC [5]: 31.2 µg/mL (≈ 118 µM)
- MIC [6]: 500 µM (≈ 133 µg/mL)
- MIC [7]: > 500 µM
- MIC [8]: 125 µM (≈ 33.2 µg/mL)
- MIC [9]: > 500 µM
- MIC [10]: > 500 µM
- MIC [11]: > 500 µM
- MIC [12]: > 500 µM
- melting point: 168 to 171 °C
- MIC ([13]; read-out: MIC CA): > 500 µM
- MIC ([14]; read-out: MIC CK): > 500 µM
- MIC ([15]; 24 h, read-out: MIC CP): > 500 µM
- MIC ([16]; read-out: MIC CT): > 500 µM
- MIC [17, 21]: > 500 µM
- MIC [18, 22]: > 500 µM
- MIC [19, 23]: > 500 µM
- MIC ([20]; 72 h, read-out: MIC TI): 500 µM

Structure (SMILES): C[C@@H]1[C@H](O)[C@@H](C)/C=C/C=C/C=C/C=C/C=C/C=C/C=C/[C@H](O[C@@H]2O[C@H](C)[C@@H](O)[C@H](N)[C@@H]2O)C[C@@H]2O[C@](O)(C[C@@H](O)C[C@@H](O)[C@H](O)CC[C@@H](O)C[C@@H](O)CC(=O)O[C@H]1C)C[C@H](O)[C@H]2C(=O)O [amphotericin B, reference compound]
- MIC [13, 24]: 1 µg/mL
- IC90 ([13]; ATCC24433|CCM8320, 24 h, read-out: IC90 (spectrophotometric detection)): 1 µg/mL (≈ 1.08 µM)
- MIC [14, 24]: 1 µg/mL
- IC90 ([14]; ATCC6258|CCM8271, 24 h, read-out: IC90 (spectrophotometric detection)): 1 µg/mL (≈ 1.08 µM)
- IC90 ([15]; ATCC22019|CCM8260, 24 h, read-out: IC90 (spectrophotometric detection)): 0.5 µg/mL (≈ 0.541 µM)
- MIC [15, 25]: 0.5 µg/mL
- MIC [16, 24]: 1 µg/mL
- IC90 ([16]; ATCC750|CCM8264, 24 h, read-out: IC90 (spectrophotometric detection)): 1 µg/mL (≈ 1.08 µM)
- IC90 ([17]; ATCC204305, 48 h, read-out: IC90 (spectrophotometric detection)): 4 µg/mL (≈ 4.33 µM)
- MIC [17, 26]: 4 µg/mL
- IC90 ([18]; CCM8363, 48 h, read-out: IC90 (spectrophotometric detection)): 4 µg/mL (≈ 4.33 µM)
- MIC [18, 27]: 4 µg/mL
- IC90 ([19]; CCM8077, 48 h, read-out: IC90 (spectrophotometric detection)): 1 µg/mL (≈ 1.08 µM)
- MIC [19, 28]: 1 µg/mL
- IC90 ([20]; ATCC9533|CCM8377, 48 h, read-out: IC90 (spectrophotometric detection)): 1 µg/mL (≈ 1.08 µM)
- MIC [20, 29]: 1 µg/mL

Structure (SMILES): C[C@@H](c1ncncc1F)[C@](O)(Cn1cncn1)c1ccc(F)cc1F [voriconazole, reference compound]
- MIC [13, 24]: > 16 µg/mL
- IC50 ([13]; ATCC24433|CCM8320, 24 h, read-out: IC50 (spectrophotometric detection)): 0.03 µg/mL (≈ 0.0859 µM)
- MIC [14, 24]: > 16 µg/mL
- IC50 ([15]; ATCC22019|CCM8260, 24 h, read-out: IC50 (spectrophotometric detection)): 0.03 µg/mL (≈ 0.0859 µM)
- MIC [15, 25]: > 16 µg/mL
- MIC [16, 24]: > 16 µg/mL
- IC50 ([17]; ATCC204305, 48 h, read-out: IC50 (spectrophotometric detection)): 0.25 µg/mL (≈ 0.716 µM)
- MIC [17, 26]: 1 µg/mL
- IC50 ([18]; CCM8363, 48 h, read-out: IC50 (spectrophotometric detection)): 1 µg/mL (≈ 2.86 µM)
- MIC [18, 27]: > 16 µg/mL
- IC50 ([19]; CCM8077, 48 h, read-out: IC50 (spectrophotometric detection)): 8 µg/mL (≈ 22.9 µM)
- MIC [19, 28]: > 16 µg/mL
- IC50 ([20]; ATCC9533|CCM8377, 48 h, read-out: IC50 (spectrophotometric detection)): 1 µg/mL (≈ 2.86 µM)
- MIC [20, 29]: > 16 µg/mL
